Assay results taken from patent US20240358025A1, “INSECT, BACTERIAL, AND/OR FUNGAL CONTROL COMPOSITION” (priority 2021, published 2024).

Tests used:
[1] = test system: Escherichia coli; test: E. coli growth inhibition by individual components and combinations (CFU count); type: cell-based; conditions: for CFUs / CFUs/mL: CFU after 24 hours; for reduction of growth of E. coli (in words): component alone
Description: (§1) Escherichia coli was grown in the presence of each component or combinations to determine the inhibitory potential. […] The appropriate amount of each component was added to 5 mL of LB media, and each culture was inoculated with 50 μL of a 12 hour old culture of E. coli. The cultures were grown for 12 hours at 37° C. with shaking at 225 rpm before being serial diluted and plated onto solid LB agar plates (5 μL per plate) in triplicate. Plates were incubated for 24 hours at 37° C., and then colonies were counted to determine the inhibitory potential.

[2] = test system: Pseudomonas aeruginosa ATCC 9027; test: Inhibition assay of essential oils and pairings in base solution, log reduction and synergy; type: cell-based; conditions: pairing Clove + Geraniol; log reduction of pairing divided by that of the pure oil named
[3] = test system: Banded crickets; test: Residual insecticides against banded crickets (surfaces aged 7 DAT); type: in vivo; conditions: 0.75 gallons per acre
Description: Post-Treatment Arenas: 20 oz. […] A potato cutting was added as a food source. Clean post-treatment arenas were used to contain the test systems after exposure to the test substances.
(§2) The test substances were shaken and then mixed at a rate of 5.324 mL of concentrate per 200 ml of water.
The diluted test substances were adequately shaken prior to applications. A track spraying jig was used to make a linear application. […] This equated to a treatment rate of 0.75 gallons per acre.

[4] = test system: Candida albicans ATCC 10231; test: Inhibition assay of essential oils and pairings in base solution, log reduction and synergy; type: cell-based; conditions: log reduction of pairing divided by that of the pure oil named
[5] = test system: E. coli; test: E. coli growth inhibition, essential oil comparison in the non-essential oil fraction (CFU count); type: cell-based, Escherichia coli; conditions: oils in non-essential oil fraction
Description: as §1
Combinations of essential oils, each at the concentration indicated in Example 1, were assayed for their inhibitory potential in a similar manner as Example 1.
The essential oils were then tested in the non-essential oil fraction for synergy. […] Also, there was increasing antimicrobial action of the essential oils related to the combination of the oils leading to the highest activity found in the Essential Oil-Ark product.

[6] = test system: Banded crickets; test: Direct spray insecticides against banded crickets; type: in vivo; conditions: 0.75 gallons per acre
Description: The Test Arenas were used to contain the test systems during the test substance applications.
Post-Treatment Arenas: 20 oz. SOLO cups with mesh lids were used as post-treatment arenas. A potato cutting was added as a food source. Clean post-treatment arenas were used to contain the test systems after exposure to the test substances.
Application Equipment: A compressed air sprayer with a flat fan nozzle, pressurized to 20 PSI was used to make applications.
as §2
The diluted test substances were adequately shaken prior to applications. A track spraying jig was used to make a linear application. A single cartridge containing 10 test systems was placed in the middle of the spray path. […] This equated to a treatment rate of 0.75 gallons per acre.
The observations were made by raising the test arenas and gently blowing air on the test systems to provoke movement, lightly prodding the test systems, or the test arenas were shaken/agitated to provoke test system movement.
The test systems were transferred from the Treatment Arenas into the clean Post-Treatment Arenas 1 hour after the applications.

| SMILES | CFUs [1] | CFUs/mL [1] | Synergistic advantage [2] | Average Percent Mortality ([3]; surface aged 7 DAT, 3 DAT) | efficacy as a residual insecticide (in words) ([3]; up to 7 days after treatment) | Synergistic advantage ([4]; pairing Geraniol + Garlic) | Synergistic advantage ([4]; pairing Geraniol + Peppermint) | Synergistic advantage ([4]; pairing Geraniol + Rosemary) | Synergistic advantage ([4]; pairing Geraniol + Thyme) | Avg ([5]; CFU after 24 hours) | CFUs ([5]; CFU after 24 hours) | CFUs/mL ([5]; CFU after 24 hours) | antimicrobial activity (in words) [5] | efficacy as a direct kill insecticide (in words) [6] | Average Percent Mortality ([6]; 2 DAT) | reduction of growth of E. coli (in words) [1] |
| --- | --- | --- | --- | --- | --- | --- | --- | --- | --- | --- | --- | --- | --- | --- | --- | --- |
| CC(C)=CCC/C(C)=C/CO [Geraniol] | 2 CFUs | 40 CFUs/mL | 106.3% | 10% | did not provide high levels of mortality | 120.9% | 103.9% | 103.9% | 103.9% | 43.333 | 43333 CFUs | 866660 CFUs/mL | highest activity of the essential oils | did not provide high levels of mortality | 33% |  |
| CCCCCCCCCCCCCCCCCC(=O)OCC(O)CO (stereo not drawn) [Glyceryl Monostearate] | 8330000 CFUs | 166600000 CFUs/mL |  |  |  |  |  |  |  |  |  |  |  |  |  | did not substantially reduce growth of E. coli |
| C/C=C/C=C/C(=O)[O-].[K+] [Potassium Sorbate] | 13000000 CFUs | 260000000 CFUs/mL |  |  |  |  |  |  |  |  |  |  |  |  |  | did not substantially reduce growth of E. coli |
